{"source": "paper PMC12865225", "about": "(Clinical and Translational Science, 2026)", "key": {"OATP2B1": {"molecular_target": "T1, OATP2B1 (Homo sapiens, UniProt O94956)", "T1 construct": "expressed in transfected cells; host or cells: HEK293 (recombinant baculovirus-mediated transduction)", "T1 sequence (O94956 1-709)": "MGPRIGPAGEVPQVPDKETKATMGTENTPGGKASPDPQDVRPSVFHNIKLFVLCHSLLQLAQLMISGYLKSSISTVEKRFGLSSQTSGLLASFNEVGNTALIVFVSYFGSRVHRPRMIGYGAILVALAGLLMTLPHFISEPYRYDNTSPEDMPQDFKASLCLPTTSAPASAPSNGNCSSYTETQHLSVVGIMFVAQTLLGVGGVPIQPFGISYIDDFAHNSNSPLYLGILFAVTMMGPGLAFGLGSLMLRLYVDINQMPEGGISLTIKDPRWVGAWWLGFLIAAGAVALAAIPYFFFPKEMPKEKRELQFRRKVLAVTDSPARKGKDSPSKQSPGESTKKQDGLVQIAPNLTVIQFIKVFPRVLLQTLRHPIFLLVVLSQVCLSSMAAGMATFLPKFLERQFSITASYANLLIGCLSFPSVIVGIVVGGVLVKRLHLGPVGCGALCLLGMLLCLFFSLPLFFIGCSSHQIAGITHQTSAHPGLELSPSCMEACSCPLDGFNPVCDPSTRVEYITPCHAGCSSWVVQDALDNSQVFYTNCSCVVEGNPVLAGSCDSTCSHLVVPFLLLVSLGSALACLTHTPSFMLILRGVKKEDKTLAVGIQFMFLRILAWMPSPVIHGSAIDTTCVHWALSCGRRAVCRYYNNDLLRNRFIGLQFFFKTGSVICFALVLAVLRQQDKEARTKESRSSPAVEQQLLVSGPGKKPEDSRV", "assay": "OATP2B1 inhibition, rosuvastatin uptake into transporter-expressing HEK293 cells", "format": "cell-based", "conditions": "for Calculated R-value OATP2B1 (hepatic): R = 1 + (I in,max,u/IC50), FDA cut-off ≥ 1.1; for Calculated R-value OATP2B1 (intestinal): R = I gut/IC50, FDA cut-off ≥ 10", "experimental": "The human transporters OATP1B1, OATP1B3, OATP2B1, and OAT1‐OAT4 and a negative control protein (enhanced yellow fluorescent protein, eYFP) were transiently expressed in human embryonic kidney 293 (HEK293) cells by recombinant baculovirus‐mediated transduction. Baculoviruses carrying human genes for the transporters were prepared as reported previously. HEK293 cells were cultured in DMEM containing 10% fetal bovine serum at 37°C and 5% CO2 and passaged two to three times per week. For the transport studies, 0.05 × 10^6 cells for 48‐well plates (OATPs) or 0.06 × 10^6 cells for 24‐well plates (OATs) were seeded onto cell‐culture treated well plates coated with poly‐D‐lysine. After 1 day, cells were transduced to produce recombinant proteins by changing media to DMEM containing 30 μL (48‐well plates) or 60 μL (24‐well plates) of recombinant baculovirus and 3 mM (OATs) or 5 mM (OATPs) sodium butyrate in a total media volume of 500 μL. The cells were cultured for a further 2 days before the transport assays.\nFor the transport studies, media were removed and cells were washed once with warm transport uptake buffer (TP‐buffer—pH 7.4 HBSS with 25 mM HEPES and 4 mM sodium bicarbonate). Each experiment included triplicate (OATP) or duplicate (OAT) samples for every test condition. The uptake was started by removing liquid from wells and applying warm TP‐buffer (200 μL for 24‐well plates or 125 μL for 48‐well plates) containing a test compound to cells. Transport assays were terminated after a pre‐specified incubation time (reported in figure legends) by removing substrate solution and washing cells three times with cold TP‐buffer (300 μL for 48‐well plates and 400 μL for 24‐well plates). For the liquid chromatography mass spectrometry (LC–MS) analysis, compounds were extracted from cells with 125 μL (48‐well plates) or 250 μL (24‐well plates) of an ultrapure‐water solution containing 75% methanol and 0.1% formic acid, shaking at 250 RPM for 30 min. […] Samples were transferred to well plates, centrifuged at 3000 g for 30 min, and transferred to a new well plate for the analysis.\nIn the OATP inhibition assays, inhibitors in warm TP‐buffer were directly applied to cells after media removal, followed by a 30‐min preincubation step in the presence of inhibitors. […] OAT1 and OAT3 cells were lysed with 200 μL of 1 M sodium hydroxide for 10 min, and 150 μL of these samples were transferred to a black well plate for fluorescein quantification. […]\nFor the inhibition data analysis, the average of measured concentrations in the control cells was subtracted from the average of measured concentrations in transporter‐expressing cells for each inhibitor concentration and then normalized to the vehicle sample that represents 100% transport activity. […]"}, "P-gp": {"molecular_target": "T2, P-gp (Homo sapiens, UniProt P08183)", "T2 construct": "made in house; host or cells: membrane vesicles from HEK293 cells expressing the transporter", "T2 sequence (P08183 whole entry)": "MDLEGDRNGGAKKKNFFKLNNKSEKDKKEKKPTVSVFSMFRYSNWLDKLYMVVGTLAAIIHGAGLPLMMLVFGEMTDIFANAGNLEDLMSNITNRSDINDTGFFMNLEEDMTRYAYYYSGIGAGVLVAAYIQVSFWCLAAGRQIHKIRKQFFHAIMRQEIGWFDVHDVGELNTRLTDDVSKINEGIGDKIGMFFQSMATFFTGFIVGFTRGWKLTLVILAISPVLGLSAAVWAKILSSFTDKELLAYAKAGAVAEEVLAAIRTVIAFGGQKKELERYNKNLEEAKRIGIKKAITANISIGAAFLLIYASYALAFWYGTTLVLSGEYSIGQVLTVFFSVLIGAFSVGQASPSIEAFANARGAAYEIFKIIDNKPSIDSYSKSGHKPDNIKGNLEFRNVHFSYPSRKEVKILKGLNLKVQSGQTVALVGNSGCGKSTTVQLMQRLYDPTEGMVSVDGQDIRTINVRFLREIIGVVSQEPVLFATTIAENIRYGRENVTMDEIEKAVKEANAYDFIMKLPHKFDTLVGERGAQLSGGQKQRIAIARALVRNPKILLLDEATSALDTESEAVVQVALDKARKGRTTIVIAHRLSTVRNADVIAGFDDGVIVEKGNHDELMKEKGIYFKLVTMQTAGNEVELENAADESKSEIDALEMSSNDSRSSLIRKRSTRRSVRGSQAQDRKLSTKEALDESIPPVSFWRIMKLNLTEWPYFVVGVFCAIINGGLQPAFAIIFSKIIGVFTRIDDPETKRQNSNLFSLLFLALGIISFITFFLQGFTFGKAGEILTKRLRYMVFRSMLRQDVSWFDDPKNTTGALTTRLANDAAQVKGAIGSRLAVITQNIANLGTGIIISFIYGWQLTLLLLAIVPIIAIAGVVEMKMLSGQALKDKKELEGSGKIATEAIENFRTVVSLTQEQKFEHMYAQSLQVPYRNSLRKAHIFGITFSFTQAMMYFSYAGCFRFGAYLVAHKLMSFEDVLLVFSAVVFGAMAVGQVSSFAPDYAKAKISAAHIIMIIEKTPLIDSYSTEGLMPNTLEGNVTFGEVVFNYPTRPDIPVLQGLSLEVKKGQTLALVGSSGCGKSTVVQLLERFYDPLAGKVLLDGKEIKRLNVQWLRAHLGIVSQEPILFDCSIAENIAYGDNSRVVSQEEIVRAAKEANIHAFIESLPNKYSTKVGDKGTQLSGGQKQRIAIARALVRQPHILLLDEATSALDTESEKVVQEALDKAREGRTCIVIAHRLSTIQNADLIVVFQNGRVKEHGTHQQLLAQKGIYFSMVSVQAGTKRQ", "assay": "P-gp inhibition, N-methyl-quinidine transport in HEK293 membrane vesicles", "format": "biochemical", "conditions": "for Calculated R-value P-gp: R = I gut/IC50, FDA cut-off ≥ 10", "experimental": "Membrane vesicles, 5 μL (7.5 μg of total protein), prepared as previously reported, were aliquoted to wells of a conical‐shaped 96‐well plate. The plate was incubated for 10 min at +37°C before the initiation of transport by adding 25 μL of TS‐buffer (10 mM Tris, 250 mM sucrose, pH adjusted to 7.4 with HEPES) containing magnesium chloride (10 mM final in the reaction), adenosine triphosphate (ATP) or adenosine monophosphate (AMP), 4 mM final in the reaction, and the transporter substrate and inhibitor. Each experiment included triplicate samples for both ATP and AMP samples. The concentrations of rosuvastatin and N‐methyl‐quinidine were 1 μM in the BCRP and P‐gp vesicle inhibition assays, respectively. The transport reaction times were 1 and 2 min for BCRP and P‐gp, respectively. […] The transport reactions were quenched by adding 200 μL of cold TS‐buffer to each well and transferring the samples to a 96‐multiwell 1.0 μm glass fiber filter plate (Merck Millipore, Darmstadt, Germany) kept under vacuum. Wells were further washed four times with cold TS‐buffer, after which the plate was dried under vacuum. The compounds were eluted from the plate by applying 100 μL of 75% methanol containing 0.1% formic acid to each well and incubating at 250 RPM for 30 min before centrifuging the samples to an analysis plate at 2800 g for 2 min. For the rosuvastatin samples, the elution solvent contained rosuvastin‐d6 as the internal standard.\nFor the inhibition data analysis, the average of measured concentrations in the control cells was subtracted from the average of measured concentrations in transporter‐expressing cells for each inhibitor concentration and then normalized to the vehicle sample that represents 100% transport activity. Equation (1) was fit to the inhibition data. In Equation (1), Inhibition represents the percent inhibition of transporter‐mediated uptake at an inhibitor concentration of I and IC50 is the half‐maximal inhibitory concentration. (1) Inhibition=100%−100%/1+10^logIC50−logI"}}, "note": "Marks after values point to notes of the source that are not given here."}
{"smiles": "Cc1onc(-c2c(Cl)cccc2Cl)c1C(=O)N[C@@H]1C(=O)N2[C@@H]1SC(C)(C)[C@@H]2C(=O)O", "note": "[Dicloxacillin]", "values": [{"measurement": "Calculated R-value OATP2B1 (hepatic)", "setting": "OATP2B1", "result": 1.2}, {"measurement": "Calculated R-value OATP2B1 (intestinal)", "setting": "OATP2B1", "result": 240}, {"measurement": "Calculated R-value P-gp", "setting": "P-gp", "result": "33 ^b"}, {"measurement": "inhibition of P-gp transport at the highest concentration", "setting": "P-gp; highest concentration", "result": "almost completely inhibited"}]}
{"smiles": "Cc1onc(-c2c(F)cccc2Cl)c1C(=O)N[C@@H]1C(=O)N2[C@@H]1SC(C)(C)[C@@H]2C(=O)O", "note": "[Flucloxacillin]", "values": [{"measurement": "Calculated R-value OATP2B1 (hepatic)", "setting": "OATP2B1", "result": 1.2}, {"measurement": "Calculated R-value OATP2B1 (intestinal)", "setting": "OATP2B1", "result": 137}, {"measurement": "IC50", "setting": "P-gp; 1 μM N-methyl-quinidine, 2 min, membrane vesicles", "result": "≥ 833", "unit": "µM"}, {"measurement": "Calculated R-value P-gp", "setting": "P-gp", "result": "11 ^b"}, {"measurement": "reduction of P-gp activity", "setting": "P-gp; highest tested concentration of 2100 μM", "result": 65, "unit": "%"}]}
